Data reported in US8758816B2, “Compositions comprising azelastine and methods of use thereof” (priority 2004, dated 2014).

Test system: patients with seasonal allergic rhinitis (SAR)
Assay: MP 428 study: individual symptom severity scores (runny nose, itchy nose, sneezing, congestion; 0-3 scale)
Format: in vivo, human
Settings: Intent-to-Treat Population
Procedure: A two-week, randomized, double-blind study, which evaluated the effects of the co-administration of ASTELIN® (azelastine hydrochloride (HCl)) and FLONASE® (fluticasone propionate) compared to either product alone in patients with seasonal allergic rhinitis (SAR) was conducted during the 2006 Texas mountain cedar season. After a 5-day placebo lead-in period, 151 patients with moderate-to-severe allergic rhinitis symptoms were randomized to either: (1) (49 total patients) ASTELIN® (azelastine hydrochloride (HCl)) plus placebo saline nasal spray 2 sprays per nostril, 15 minutes apart, twice daily (AM & PM); (2) (50 total patients) FLONASE® (fluticasone propionate) plus placebo saline nasal spray, 2 sprays per nostril, 15 minutes apart, once daily (AM) and two sessions of placebo saline nasal spray, 2 sprays per nostril, 15 minutes apart (PM); or (3) (52 total patients) the co-administration of ASTELIN® (azelastine hydrochloride (HCl)) 2 sprays per nostril plus FLONASE® (fluticasone propionate) 2 sprays per nostril (AM), 15 minutes apart, and ASTELIN® (azelastine hydrochloride (HCl)) 2 sprays per nostril plus placebo saline nasal spray, 15 minutes apart, (PM) for a 2-week double-blind treatment period.
The primary efficacy variable was the change from baseline in the Total Nasal Symptom Score (TNSS), which comprised sneezing, itchy nose, runny nose, and nasal congestion (individual symptoms scores were assigned a value between 0 and 3, where 0=no symptoms and 3=severe symptoms). This study was not statistically designed to assess the differences between ASTELIN® and FLONASE®.
The results of the clinical trial are summarized and presented in Appendix A hereinbelow and in FIGS. 1-6. […] FIGS. 2-5 show the mean improvement in severity score (0-3 scale) from baseline for the symptoms of runny nose, itchy nose, sneezing and congestion, respectively.

CCC(=O)O[C@]1(C(=O)SCF)[C@H](C)C[C@H]2[C@@H]3C[C@H](F)C4=CC(=O)C=C[C@]4(C)[C@@]3(F)[C@@H](O)C[C@@]21C [Fluticasone, fluticasone propionate]
Change from Baseline in AM and PM Combined Nasal Symptom Score: Congestion, LS Mean (Day 9): −1.19
Change from Baseline in AM and PM Combined Nasal Symptom Score: Congestion, Mean (Day 9): −1.22
Change from Baseline in AM and PM Combined Nasal Symptom Score: Congestion, Median (Day 9): −1.27
Change from Baseline in AM and PM Combined Nasal Symptom Score: Itchy Nose, LS Mean (Day 9): −1.40
Change from Baseline in AM and PM Combined Nasal Symptom Score: Itchy Nose, Mean (Day 9): −1.35
Change from Baseline in AM and PM Combined Nasal Symptom Score: Itchy Nose, Median (Day 9): −1.30
Change from Baseline in AM and PM Combined Nasal Symptom Score: Runny Nose, LS Mean (Day 9): −1.18
Change from Baseline in AM and PM Combined Nasal Symptom Score: Runny Nose, Mean (Day 9): −1.21
Change from Baseline in AM and PM Combined Nasal Symptom Score: Runny Nose, Median (Day 9): −1.00
Change from Baseline in AM and PM Combined Nasal Symptom Score: Sneezing, LS Mean (Day 9): −1.40
Change from Baseline in AM and PM Combined Nasal Symptom Score: Sneezing, Mean (Day 9): −1.29
Change from Baseline in AM and PM Combined Nasal Symptom Score: Sneezing, Median (Day 9): −1.40
Percent Change from Baseline in AM and PM Combined Nasal Symptom Score: Congestion, LS Mean (Day 9): −22.17%
Percent Change from Baseline in AM and PM Combined Nasal Symptom Score: Congestion, Mean (Day 9): −22.28%
Percent Change from Baseline in AM and PM Combined Nasal Symptom Score: Congestion, Median (Day 9): −24.05%
Percent Change from Baseline in AM and PM Combined Nasal Symptom Score: Itchy Nose, LS Mean (Day 9): −29.96%
Percent Change from Baseline in AM and PM Combined Nasal Symptom Score: Itchy Nose, Mean (Day 9): −28.73%
Percent Change from Baseline in AM and PM Combined Nasal Symptom Score: Itchy Nose, Median (Day 9): −31.23%
Percent Change from Baseline in AM and PM Combined Nasal Symptom Score: Runny Nose, LS Mean (Day 9): −18.79%
Percent Change from Baseline in AM and PM Combined Nasal Symptom Score: Runny Nose, Mean (Day 9): −19.22%
Percent Change from Baseline in AM and PM Combined Nasal Symptom Score: Runny Nose, Median (Day 9): −16.67%
Percent Change from Baseline in AM and PM Combined Nasal Symptom Score: Sneezing, LS Mean (Day 9): −29.73%
Percent Change from Baseline in AM and PM Combined Nasal Symptom Score: Sneezing, Mean (Day 9): −28.22%
Percent Change from Baseline in AM and PM Combined Nasal Symptom Score: Sneezing, Median (Day 9): −32.58%
Change from Baseline in AM and PM Combined Nasal Symptom Score: Congestion, LS Mean (Day 10): −1.34
Change from Baseline in AM and PM Combined Nasal Symptom Score: Congestion, Mean (Day 10): −1.39
Change from Baseline in AM and PM Combined Nasal Symptom Score: Congestion, Median (Day 10): −1.50
Change from Baseline in AM and PM Combined Nasal Symptom Score: Itchy Nose, LS Mean (Day 10): −1.21
Change from Baseline in AM and PM Combined Nasal Symptom Score: Itchy Nose, Mean (Day 10): −1.19
Change from Baseline in AM and PM Combined Nasal Symptom Score: Itchy Nose, Median (Day 10): −1.00
Change from Baseline in AM and PM Combined Nasal Symptom Score: Runny Nose, LS Mean (Day 10): −1.52
Change from Baseline in AM and PM Combined Nasal Symptom Score: Runny Nose, Mean (Day 10): −1.54
Change from Baseline in AM and PM Combined Nasal Symptom Score: Runny Nose, Median (Day 10): −1.45
Change from Baseline in AM and PM Combined Nasal Symptom Score: Sneezing, LS Mean (Day 10): −1.57
Change from Baseline in AM and PM Combined Nasal Symptom Score: Sneezing, Mean (Day 10): −1.50
Change from Baseline in AM and PM Combined Nasal Symptom Score: Sneezing, Median (Day 10): −1.58
Percent Change from Baseline in AM and PM Combined Nasal Symptom Score: Congestion, LS Mean (Day 10): −24.97%
Percent Change from Baseline in AM and PM Combined Nasal Symptom Score: Congestion, Mean (Day 10): −25.31%
Percent Change from Baseline in AM and PM Combined Nasal Symptom Score: Congestion, Median (Day 10): −27.27%
Percent Change from Baseline in AM and PM Combined Nasal Symptom Score: Itchy Nose, LS Mean (Day 10): −23.04%
Percent Change from Baseline in AM and PM Combined Nasal Symptom Score: Itchy Nose, Mean (Day 10): −22.79%
Percent Change from Baseline in AM and PM Combined Nasal Symptom Score: Itchy Nose, Median (Day 10): −18.99%
Percent Change from Baseline in AM and PM Combined Nasal Symptom Score: Runny Nose, LS Mean (Day 10): −26.05%
Percent Change from Baseline in AM and PM Combined Nasal Symptom Score: Runny Nose, Mean (Day 10): −26.39%
Percent Change from Baseline in AM and PM Combined Nasal Symptom Score: Runny Nose, Median (Day 10): −29.13%
Percent Change from Baseline in AM and PM Combined Nasal Symptom Score: Sneezing, LS Mean (Day 10): −31.65%
Percent Change from Baseline in AM and PM Combined Nasal Symptom Score: Sneezing, Mean (Day 10): −31.17%
Percent Change from Baseline in AM and PM Combined Nasal Symptom Score: Sneezing, Median (Day 10): −33.33%
Change from Baseline in AM and PM Combined Nasal Symptom Score: Congestion, LS Mean (Day 11): −1.22
Change from Baseline in AM and PM Combined Nasal Symptom Score: Congestion, Mean (Day 11): −1.28
Change from Baseline in AM and PM Combined Nasal Symptom Score: Congestion, Median (Day 11): −1.27
Change from Baseline in AM and PM Combined Nasal Symptom Score: Itchy Nose, LS Mean (Day 11): −1.33
Change from Baseline in AM and PM Combined Nasal Symptom Score: Itchy Nose, Mean (Day 11): −1.29
Change from Baseline in AM and PM Combined Nasal Symptom Score: Itchy Nose, Median (Day 11): −1.08
Change from Baseline in AM and PM Combined Nasal Symptom Score: Runny Nose, LS Mean (Day 11): −1.51
Change from Baseline in AM and PM Combined Nasal Symptom Score: Runny Nose, Mean (Day 11): −1.54
Change from Baseline in AM and PM Combined Nasal Symptom Score: Runny Nose, Median (Day 11): −1.42
Change from Baseline in AM and PM Combined Nasal Symptom Score: Sneezing, LS Mean (Day 11): −1.78
Change from Baseline in AM and PM Combined Nasal Symptom Score: Sneezing, Mean (Day 11): −1.66
Change from Baseline in AM and PM Combined Nasal Symptom Score: Sneezing, Median (Day 11): −1.83
Percent Change from Baseline in AM and PM Combined Nasal Symptom Score: Congestion, LS Mean (Day 11): −22.54%
Percent Change from Baseline in AM and PM Combined Nasal Symptom Score: Congestion, Mean (Day 11): −23.45%
Percent Change from Baseline in AM and PM Combined Nasal Symptom Score: Congestion, Median (Day 11): −24.05%
Percent Change from Baseline in AM and PM Combined Nasal Symptom Score: Itchy Nose, LS Mean (Day 11): −26.56%
Percent Change from Baseline in AM and PM Combined Nasal Symptom Score: Itchy Nose, Mean (Day 11): −25.70%
Percent Change from Baseline in AM and PM Combined Nasal Symptom Score: Itchy Nose, Median (Day 11): −27.36%
Percent Change from Baseline in AM and PM Combined Nasal Symptom Score: Runny Nose, LS Mean (Day 11): −31.56%
Percent Change from Baseline in AM and PM Combined Nasal Symptom Score: Runny Nose, Mean (Day 11): −31.74%
Percent Change from Baseline in AM and PM Combined Nasal Symptom Score: Runny Nose, Median (Day 11): −33.33%
Percent Change from Baseline in AM and PM Combined Nasal Symptom Score: Sneezing, LS Mean (Day 11): −35.11%
Percent Change from Baseline in AM and PM Combined Nasal Symptom Score: Sneezing, Mean (Day 11): −33.52%
Percent Change from Baseline in AM and PM Combined Nasal Symptom Score: Sneezing, Median (Day 11): −36.05%
Change from Baseline in AM and PM Combined Nasal Symptom Score: Congestion, LS Mean (Day 12): −1.41
Change from Baseline in AM and PM Combined Nasal Symptom Score: Congestion, Mean (Day 12): −1.49
Change from Baseline in AM and PM Combined Nasal Symptom Score: Congestion, Median (Day 12): −1.55
Change from Baseline in AM and PM Combined Nasal Symptom Score: Itchy Nose, LS Mean (Day 12): −1.50
Change from Baseline in AM and PM Combined Nasal Symptom Score: Itchy Nose, Mean (Day 12): −1.48
Change from Baseline in AM and PM Combined Nasal Symptom Score: Itchy Nose, Median (Day 12): −1.17
Change from Baseline in AM and PM Combined Nasal Symptom Score: Runny Nose, LS Mean (Day 12): −1.54
Change from Baseline in AM and PM Combined Nasal Symptom Score: Runny Nose, Mean (Day 12): −1.58
Change from Baseline in AM and PM Combined Nasal Symptom Score: Runny Nose, Median (Day 12): −1.35
Change from Baseline in AM and PM Combined Nasal Symptom Score: Sneezing, LS Mean (Day 12): −1.68
Change from Baseline in AM and PM Combined Nasal Symptom Score: Sneezing, Mean (Day 12): −1.54
Change from Baseline in AM and PM Combined Nasal Symptom Score: Sneezing, Median (Day 12): −1.80
